# Experimental data from patent US20240269139A1, “COMPOUNDS FOR TARGETED PROTEIN DEGRADATION OF KINASES” (DANA-FARBER CANCER INSTITUTE, INC., priority 2020, published 2024).
# Like-named read-outs stand apart in the source and are kept apart here.
# How the values were obtained:
# Assay type in all cases: cell-based
# [1] = target: protein kinases (human kinome) (Homo sapiens, UniProt P12931); conditions: for logFC of SRC: Accession P12931; for logFC: SRC (P12931), direction down
# [2] = target: protein kinases (human kinome) (Homo sapiens, UniProt Q92918)
# [3] = target: protein kinases (human kinome) (Homo sapiens, UniProt P00519)
# [4] = target: protein kinases (human kinome) (Homo sapiens, UniProt O96013); conditions: PAK4 O96013-1
# [5] = target: protein kinases (human kinome) (Homo sapiens, UniProt Q9BYT3); conditions: STK33 (Q9BYT3-1)
# [6] = target: protein kinases (human kinome) (Homo sapiens, UniProt Q9BVS4); conditions: RIOK2 Q9BVS4
# [7] = target: T1, protein kinases (human kinome) (Homo sapiens, UniProt Q08881); conditions: for logFC: ITK (Q08881) protein abundance, degrader vs DMSO
# T1 sequence (Q08881 1-620): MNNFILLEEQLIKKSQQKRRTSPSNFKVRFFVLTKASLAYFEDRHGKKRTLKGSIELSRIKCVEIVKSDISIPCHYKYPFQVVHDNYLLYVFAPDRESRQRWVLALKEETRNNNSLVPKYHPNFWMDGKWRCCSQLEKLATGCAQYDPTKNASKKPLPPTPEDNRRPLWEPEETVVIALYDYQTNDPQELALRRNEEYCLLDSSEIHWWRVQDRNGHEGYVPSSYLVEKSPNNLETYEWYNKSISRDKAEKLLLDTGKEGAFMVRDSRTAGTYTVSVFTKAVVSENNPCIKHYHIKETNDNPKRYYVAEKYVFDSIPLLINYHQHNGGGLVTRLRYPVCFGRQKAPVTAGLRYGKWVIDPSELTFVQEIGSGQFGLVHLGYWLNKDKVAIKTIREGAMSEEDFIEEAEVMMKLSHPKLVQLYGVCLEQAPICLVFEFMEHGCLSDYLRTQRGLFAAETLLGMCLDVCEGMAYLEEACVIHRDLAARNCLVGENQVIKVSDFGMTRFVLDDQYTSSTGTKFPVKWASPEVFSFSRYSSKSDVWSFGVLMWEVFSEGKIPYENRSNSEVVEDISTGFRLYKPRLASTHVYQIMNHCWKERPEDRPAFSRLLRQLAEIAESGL
# [8] = experiment wp016, direction of change down
# [9] = experiment wp146, direction down
# protein kinases (human kinome) (Homo sapiens, UniProt Q9BVS4), sequence (Q9BVS4 whole entry): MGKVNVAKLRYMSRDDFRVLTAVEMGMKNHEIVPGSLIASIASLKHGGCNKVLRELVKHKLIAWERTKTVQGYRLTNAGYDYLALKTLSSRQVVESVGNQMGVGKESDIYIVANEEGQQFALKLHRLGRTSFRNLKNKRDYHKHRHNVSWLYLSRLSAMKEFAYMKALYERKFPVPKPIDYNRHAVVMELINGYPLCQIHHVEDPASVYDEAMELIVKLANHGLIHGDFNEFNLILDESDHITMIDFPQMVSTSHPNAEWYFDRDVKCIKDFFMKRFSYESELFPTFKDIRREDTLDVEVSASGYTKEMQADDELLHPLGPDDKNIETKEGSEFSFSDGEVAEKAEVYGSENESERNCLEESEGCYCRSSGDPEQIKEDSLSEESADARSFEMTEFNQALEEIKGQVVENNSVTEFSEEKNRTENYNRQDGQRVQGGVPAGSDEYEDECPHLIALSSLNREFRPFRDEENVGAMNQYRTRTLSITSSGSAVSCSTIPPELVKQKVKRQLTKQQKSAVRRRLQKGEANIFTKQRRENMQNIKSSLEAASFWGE
# protein kinases (human kinome) (Homo sapiens, UniProt Q92918), sequence (Q92918 whole entry): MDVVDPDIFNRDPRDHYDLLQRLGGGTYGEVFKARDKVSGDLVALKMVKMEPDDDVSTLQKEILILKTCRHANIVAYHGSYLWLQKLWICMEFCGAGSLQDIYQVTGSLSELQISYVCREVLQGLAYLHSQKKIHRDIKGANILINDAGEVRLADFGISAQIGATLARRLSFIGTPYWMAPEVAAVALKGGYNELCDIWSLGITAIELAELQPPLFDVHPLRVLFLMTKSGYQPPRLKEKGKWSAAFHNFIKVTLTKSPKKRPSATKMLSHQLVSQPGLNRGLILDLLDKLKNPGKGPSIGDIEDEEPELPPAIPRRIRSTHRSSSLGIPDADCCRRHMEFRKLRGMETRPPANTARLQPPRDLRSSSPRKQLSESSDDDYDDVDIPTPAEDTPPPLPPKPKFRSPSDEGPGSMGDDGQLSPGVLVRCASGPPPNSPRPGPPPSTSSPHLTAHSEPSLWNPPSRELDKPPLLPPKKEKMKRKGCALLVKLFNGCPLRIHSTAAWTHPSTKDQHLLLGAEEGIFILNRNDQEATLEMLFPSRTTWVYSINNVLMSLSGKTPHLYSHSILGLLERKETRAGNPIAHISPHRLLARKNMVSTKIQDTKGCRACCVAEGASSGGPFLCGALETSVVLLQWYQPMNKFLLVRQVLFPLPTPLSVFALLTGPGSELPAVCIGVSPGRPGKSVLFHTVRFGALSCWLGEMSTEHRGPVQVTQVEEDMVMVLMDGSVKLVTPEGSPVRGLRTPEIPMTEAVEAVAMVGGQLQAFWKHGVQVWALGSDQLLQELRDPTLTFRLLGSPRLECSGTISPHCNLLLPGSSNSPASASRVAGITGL
# protein kinases (human kinome) (Homo sapiens, UniProt O96013), sequence (O96013 whole entry): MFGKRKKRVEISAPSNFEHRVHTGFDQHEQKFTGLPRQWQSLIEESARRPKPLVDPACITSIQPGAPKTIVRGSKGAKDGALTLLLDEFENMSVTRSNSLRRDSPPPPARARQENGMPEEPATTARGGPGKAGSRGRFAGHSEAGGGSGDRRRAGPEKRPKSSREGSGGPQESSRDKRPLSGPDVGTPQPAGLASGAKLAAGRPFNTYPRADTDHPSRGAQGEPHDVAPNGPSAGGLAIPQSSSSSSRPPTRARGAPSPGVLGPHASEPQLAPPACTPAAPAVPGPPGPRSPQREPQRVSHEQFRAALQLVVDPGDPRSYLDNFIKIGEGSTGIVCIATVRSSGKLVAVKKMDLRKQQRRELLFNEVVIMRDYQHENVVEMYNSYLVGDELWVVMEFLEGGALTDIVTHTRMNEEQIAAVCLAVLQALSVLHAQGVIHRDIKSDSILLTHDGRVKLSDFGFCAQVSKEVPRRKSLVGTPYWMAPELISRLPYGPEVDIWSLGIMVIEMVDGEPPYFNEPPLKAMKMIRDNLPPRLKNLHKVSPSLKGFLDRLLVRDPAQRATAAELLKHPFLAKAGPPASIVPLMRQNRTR
# protein kinases (human kinome) (Homo sapiens, UniProt P12931), sequence (P12931 whole entry): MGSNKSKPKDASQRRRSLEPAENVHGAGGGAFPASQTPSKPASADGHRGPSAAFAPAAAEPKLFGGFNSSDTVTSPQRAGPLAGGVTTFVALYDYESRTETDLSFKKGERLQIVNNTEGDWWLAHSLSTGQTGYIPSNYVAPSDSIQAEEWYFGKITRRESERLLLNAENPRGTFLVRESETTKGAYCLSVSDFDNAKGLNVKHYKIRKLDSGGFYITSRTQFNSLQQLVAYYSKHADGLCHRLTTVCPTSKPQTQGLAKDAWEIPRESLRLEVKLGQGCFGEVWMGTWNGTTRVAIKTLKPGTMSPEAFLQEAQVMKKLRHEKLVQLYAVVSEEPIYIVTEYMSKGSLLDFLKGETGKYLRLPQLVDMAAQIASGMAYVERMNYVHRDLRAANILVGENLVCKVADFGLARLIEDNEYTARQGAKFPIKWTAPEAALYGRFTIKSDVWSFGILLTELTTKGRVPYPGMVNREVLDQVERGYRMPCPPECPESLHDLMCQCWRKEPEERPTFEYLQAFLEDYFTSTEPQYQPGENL
# protein kinases (human kinome) (Homo sapiens, UniProt P00519), sequence (P00519 whole entry): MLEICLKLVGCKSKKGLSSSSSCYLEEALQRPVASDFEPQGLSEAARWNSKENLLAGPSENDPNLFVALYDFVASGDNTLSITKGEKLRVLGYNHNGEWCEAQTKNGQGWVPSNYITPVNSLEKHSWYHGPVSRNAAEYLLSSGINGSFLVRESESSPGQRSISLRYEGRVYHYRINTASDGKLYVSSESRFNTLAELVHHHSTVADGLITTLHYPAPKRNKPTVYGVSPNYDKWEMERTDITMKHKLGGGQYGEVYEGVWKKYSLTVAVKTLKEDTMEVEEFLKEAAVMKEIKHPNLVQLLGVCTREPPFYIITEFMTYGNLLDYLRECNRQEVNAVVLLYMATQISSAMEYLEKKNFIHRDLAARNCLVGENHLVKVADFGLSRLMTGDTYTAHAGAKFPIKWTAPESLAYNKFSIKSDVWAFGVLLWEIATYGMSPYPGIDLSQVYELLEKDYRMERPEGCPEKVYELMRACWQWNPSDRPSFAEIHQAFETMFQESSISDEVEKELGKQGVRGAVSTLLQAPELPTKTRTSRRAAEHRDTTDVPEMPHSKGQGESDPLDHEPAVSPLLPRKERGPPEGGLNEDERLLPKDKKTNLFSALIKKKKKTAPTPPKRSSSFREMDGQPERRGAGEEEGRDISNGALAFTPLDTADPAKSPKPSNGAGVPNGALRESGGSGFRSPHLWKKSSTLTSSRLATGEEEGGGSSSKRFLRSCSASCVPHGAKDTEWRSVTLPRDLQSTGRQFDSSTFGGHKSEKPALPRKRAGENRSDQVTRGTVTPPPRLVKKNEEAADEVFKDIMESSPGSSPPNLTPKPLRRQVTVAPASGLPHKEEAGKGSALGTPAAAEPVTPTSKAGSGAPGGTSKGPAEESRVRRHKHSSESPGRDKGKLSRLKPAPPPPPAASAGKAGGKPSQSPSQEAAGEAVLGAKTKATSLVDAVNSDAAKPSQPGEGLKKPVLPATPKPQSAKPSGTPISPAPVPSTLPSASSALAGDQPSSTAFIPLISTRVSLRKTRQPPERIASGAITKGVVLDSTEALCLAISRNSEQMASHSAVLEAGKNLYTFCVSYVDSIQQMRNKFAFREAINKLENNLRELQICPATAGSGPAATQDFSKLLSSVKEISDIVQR
# protein kinases (human kinome) (Homo sapiens, UniProt Q9BYT3), sequence (Q9BYT3 whole entry): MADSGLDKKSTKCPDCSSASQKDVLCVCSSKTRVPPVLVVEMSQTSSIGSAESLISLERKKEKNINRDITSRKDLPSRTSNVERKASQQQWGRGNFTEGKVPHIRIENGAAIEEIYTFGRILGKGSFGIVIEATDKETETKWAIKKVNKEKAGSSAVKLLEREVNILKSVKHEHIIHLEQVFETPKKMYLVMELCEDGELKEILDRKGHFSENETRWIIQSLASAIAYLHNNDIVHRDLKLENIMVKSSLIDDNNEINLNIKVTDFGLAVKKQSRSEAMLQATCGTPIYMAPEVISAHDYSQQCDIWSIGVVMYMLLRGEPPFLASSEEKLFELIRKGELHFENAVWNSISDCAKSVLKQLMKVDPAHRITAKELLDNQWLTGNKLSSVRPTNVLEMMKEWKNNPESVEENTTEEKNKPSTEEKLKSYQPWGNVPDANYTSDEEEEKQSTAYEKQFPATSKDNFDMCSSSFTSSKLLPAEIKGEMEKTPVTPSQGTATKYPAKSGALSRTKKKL
smiles,measurement,setting,value
"Cc1ccc(NC(=O)c2cccc(C(F)(F)F)c2)cc1N1Cc2cnc(Nc3ccc(N4CCN(Cc5cn(CCCCCOc6cccc7c6C(=O)N(C6CCC(=O)NC6=O)C7=O)nn5)CC4)nc3)nc2N(C)C1=O (stereo not drawn) [DB0646, N-(3-(7-((6-(4-((1-(5-((2-(2,6-Dioxopiperidin-3-yl)-1,3-dioxoisoindolin-4-yl)oxy)pentyl)-1H-1,2,3-triazol-4-yl)methyl)piperazin-1-v)pyridin-3-yl)amino)-1-methyl-2-oxo-1,4-dihydropyrimido[4,5-d]pyrimidin-3(2H)-yl)-4-methylphenyl)-3-(trifluoromethyl)benzamide]",logFC of SRC,[1]; experiment wp152,−0.3941
same,logFC of SRC,"[1]; experiment wp160, 4 hr",−0.5186
same,logFC of SRC,"[1]; experiment wp160, 8 hr",−0.6833
same,logFC,[1]; experiment wp152,−0.3941
same,logFC,"[1]; experiment wp160, 4 hr",−0.5186
same,logFC,"[1]; experiment wp160, 8 hr",−0.6833
same,logFC MAP4K1 (Q92918),[2]; experiment wp045,−0.4789
same,logFC MAP4K1 (Q92918),[2]; experiment wp152,−0.3638
same,logFC MAP4K1 (Q92918),"[2]; experiment wp160, 4 hr",−0.3228
same,logFC MAP4K1 (Q92918),"[2]; experiment wp160, 8 hr",−0.5785
Cc1ccc(NC(=O)c2cccc(C(F)(F)F)c2)cc1N1Cc2cnc(Nc3ccc(N4CCN(CCCOc5cccc6c5C(=O)N(C5CCC(=O)NC5=O)C6=O)CC4)nc3)nc2N(C)C1=O (stereo not drawn) [DB0662],logFC of SRC,[1]; experiment wp168,−0.9018
same,logFC of SRC (P12931),[1]; Experiment wp168,−0.9018
same,logFC MAP4K1 (Q92918),[2]; experiment wp168,−0.4067
same,logFC of ABL1 (P00519),[3]; Experiment wp168,−0.7617
same,logFC ABL1 (P00519),[3]; experiment wp168,−0.7617
same,logFC,[4]; experiment wp168,−1.34
same,logFC PAK4,[4]; experiment wp168,−1.34
Cc1ccc(NC(=O)c2cccc(C(F)(F)F)c2)cc1N1Cc2cnc(Nc3ccc(N4CCN(CCCCC(=O)N[C@H](C(=O)N5C[C@H](O)C[C@H]5C(=O)N[C@@H](C)c5ccc(-c6scnc6C)cc5)C(C)(C)C)CC4)nc3)nc2N(C)C1=O [DB1113],logFC MAP4K1 (Q92918),[2]; experiment wp168,−0.8463
same,logFC of ABL1 (P00519),[3]; Experiment wp168,−1.014
same,logFC ABL1 (P00519),[3]; experiment wp168,−1.014
CNC(=O)c1ccccc1Nc1cc(Nc2ccc(N3CCN(CCOCCOCCNC(=O)CNc4cccc5c4C(=O)N(C4CCC(=O)NC4=O)C5=O)CC3)cc2OC)ncc1C(F)(F)F (stereo not drawn) [MFH.5.103.1],logFC,[5]; experiment wp076,−2.784
same,logFC,"[5]; experiment wp076, direction down",−2.784
CCc1cnn2c(N(Cc3ccc(N)nc3)C(=O)CCOCCOCCOCCNC(=O)CNc3cccc4c3C(=O)N(C3CCC(=O)NC3=O)C4=O)cc(N3CCCC[C@H]3CCO)nc12 (stereo partly drawn) [MFH.5.115.2],logFC,[6]; experiment wp076,−0.8067
same,logFC RIOK2,[6]; experiment wp076,−0.8067
O=C1CCC(N2C(=O)c3cccc(NCCCCCCCCN4CCC(NC(=O)c5[nH]ncc5NC(=O)c5c(Cl)cccc5Cl)CC4)c3C2=O)C(=O)N1 (stereo not drawn) [MFH.5.126.1],logFC,[6]; experiment wp076,−0.7874
same,logFC RIOK2,[6]; experiment wp076,−0.7874
CC(C)S(=O)(=O)c1ccccc1Nc1nc(Nc2ccc(N3CCN(CCOCCNC(=O)CNc4cccc5c4C(=O)N(C4CCC(=O)NC4=O)C5=O)CC3)cc2)ncc1Cl (stereo not drawn) [SK.3.91],logFC,"[6]; experiment wp016, 1 uM",−0.6319
same,logFC RIOK2,"[6]; experiment wp016, 1 uM",−0.6319
same,logFC,[6]; experiment wp103,−0.8311
same,logFC RIOK2,[6]; experiment wp103,−0.8311
same,logFC,[6]; experiment wp105,−0.482
same,logFC RIOK2,[6]; experiment wp105,−0.482
same,logFC,[6]; experiment wp107,−0.7393
same,logFC RIOK2,[6]; experiment wp107,−0.7393
same,logFC,"[6]; experiment wp133, 4 hr",−0.6476
same,logFC RIOK2,"[6]; experiment wp133, 4 hr",−0.6476
same,logFC,"[6]; experiment wp160, 4 hr",−0.4416
same,logFC RIOK2,"[6]; experiment wp160, 4 hr",−0.4416
same,logFC of SRC,"[1]; experiment wp160, 4 hr",−0.5292
same,logFC,"[1]; experiment wp160, 4 hr",−0.5292
same,logFC ITK (Q08881),[7]; Experiment wp103,−1.663
same,logFC ITK (Q08881),[7]; Experiment wp107,−1.963
same,logFC ITK (Q08881),"[7]; Experiment wp160, 2 hr",−0.799
same,logFC,"[7]; 2 hr, down",−0.799
same,logFC,"[7]; 4 hr, down",−1.783
same,logFC ITK (Q08881),[7]; experiment wp016,−2.308
same,logFC ITK (Q08881),"[7]; experiment wp016, 1 uM",−2.033
same,logFC ITK (Q08881),"[7]; experiment wp016, 1 uM, direction of change down",−2.033
same,logFC ITK (Q08881),[7]; [8],−2.308
same,logFC ITK (Q08881),"[7]; experiment wp103, direction of change down",−1.663
same,logFC ITK (Q08881),"[7]; experiment wp107, direction of change down",−1.963
same,logFC ITK (Q08881),"[7]; experiment wp133, 1 hr",−0.3741
same,logFC ITK (Q08881),"[7]; experiment wp133, 1 hr, direction of change down",−0.3741
same,logFC ITK (Q08881),"[7]; experiment wp133, 2 hr",−0.8321
same,logFC ITK (Q08881),"[7]; experiment wp133, 2 hr, direction of change down",−0.8321
same,logFC ITK (Q08881),"[7]; experiment wp133, 4 hr",−1.654
same,logFC ITK (Q08881),"[7]; experiment wp133, 4 hr, direction of change down",−1.654
same,logFC ITK (Q08881),"[7]; experiment wp160, 4 hr",−1.783
same,logFC MAP4K1 (Q92918),"[2]; experiment wp016, 1 uM",−0.6677
same,logFC MAP4K1 (Q92918),[2]; experiment wp103,−0.5099
same,logFC MAP4K1 (Q92918),[2]; experiment wp107,−0.7036
same,logFC MAP4K1 (Q92918),"[2]; experiment wp133, 4 hr",−0.5528
same,logFC MAP4K1 (Q92918),"[2]; experiment wp160, 4 hr",−0.4817
same,logFC ABL1 (P00519),"[3]; experiment wp160, 4 hr",−0.3545
same,logFC of ABL1 (P00519),"[3]; experiment wp160, 4 hr",−0.3545
same,logFC,[5]; experiment wp105,−2.057
same,logFC,"[5]; experiment wp105, direction down",−2.057
same,logFC,[5]; experiment wp172,−2.227
same,logFC,"[5]; experiment wp172, direction down",−2.227
CC(C)S(=O)(=O)c1ccccc1Nc1nc(Nc2ccc(N3CCN(CCOCCNC(=O)CNc4ccc5c(c4)C(=O)N(C4CCC(=O)NC4=O)C5=O)CC3)cc2)ncc1Cl (stereo not drawn) [SK.3.93],logFC ITK (Q08881),[7]; experiment wp016,−2.136
same,logFC ITK (Q08881),[7]; [8],−2.136
CC(C)S(=O)(=O)c1ccccc1Nc1nc(Nc2ccc(N3CCN(CCOCCOCCNC(=O)CNc4cccc5c4C(=O)N(C4CCC(=O)NC4=O)C5=O)CC3)cc2)ncc1Cl (stereo not drawn) [TL12.186],logFC,[6]; experiment wp131,−0.9134
same,logFC RIOK2,[6]; experiment wp131,−0.9134
same,logFC,[6]; experiment wp137,−0.7728
same,logFC RIOK2,[6]; experiment wp137,−0.7728
same,logFC ITK (Q08881),[7]; experiment wp016,−2.342
same,logFC ITK (Q08881),[7]; [8],−2.342
same,logFC ITK (Q08881),[7]; experiment wp131,−2.292
same,logFC ITK (Q08881),"[7]; experiment wp131, direction of change down",−2.292
same,logFC ITK (Q08881),[7]; experiment wp137,−1.973
same,logFC ITK (Q08881),"[7]; experiment wp137, direction of change down",−1.973
same,logFC MAP4K1 (Q92918),[2]; experiment wp131,−0.4581
same,logFC MAP4K1 (Q92918),[2]; experiment wp137,−0.6136
CC(C)S(=O)(=O)c1ccccc1Nc1nc(Nc2ccc(N3CCN(CCOCCOCCC(=O)NCCNc4cccc5c4CN(C4CCC(=O)NC4=O)C5=O)CC3)cc2)ncc1Cl (stereo not drawn) [TL13.97],logFC,[7]; direction of change down,−2.28
same,logFC ITK (Q08881),[7]; experiment wp137,−2.28
NC(=O)c1c(F)cccc1Nc1nc(Nc2ccc(S(=O)(=O)NCCOCCOCCOCCOCCNc3cccc4c3C(=O)N(C3CCC(=O)NC3=O)C4=O)cc2)ncc1Br (stereo not drawn) [TMX.02.138],logFC,[5]; experiment wp146,−1.335
same,logFC,[5]; [9],−1.335
Cc1cc(Nc2ncc(Br)c(Nc3cccc(F)c3C(N)=O)n2)ccc1S(=O)(=O)NCCOCCOCCOCCOCCNc1cccc2c1C(=O)N(C1CCC(=O)NC1=O)C2=O (stereo not drawn) [TMX.02.174],logFC,[5]; experiment wp146,−1.763
same,logFC,[5]; [9],−1.763
Nc1ncc(-c2ccc(S(=O)(=O)N(CCCNC(=O)CCOCCOCCOCCOCCOCCNc3cccc4c3C(=O)N(C3CCC(=O)NC3=O)C4=O)C3CC3)cc2)cc1-c1ccc2c(c1)CCNC2=O (stereo not drawn) [WH.10417.099],logFC,[4]; experiment wp103,−0.3705
same,logFC PAK4,[4]; experiment wp103,−0.3705
same,logFC,[4]; experiment wp105,−0.3478
same,logFC PAK4,[4]; experiment wp105,−0.3478
same,logFC,[4]; experiment wp107,−0.4797
same,logFC PAK4,[4]; experiment wp107,−0.4797
C=CCn1c(=O)c2cnc(Nc3ccc(N4CCN(CCCNc5cccc6c5C(=O)N(C5CCC(=O)NC5=O)C6=O)CC4)cc3)nc2n1-c1cccc(C(C)(C)O)n1 (stereo not drawn) [ZNL.02.096],logFC,[4]; experiment wp056,−0.634
same,logFC PAK4,[4]; experiment wp056,−0.634
same,logFC,[4]; experiment wp081,−0.3989
same,logFC PAK4,[4]; experiment wp081,−0.3989
same,logFC,"[4]; experiment wp106, 2 hr",−0.4238
same,logFC PAK4,"[4]; experiment wp106, 2 hr",−0.4238
same,logFC,"[4]; experiment wp106, 4 hr",−0.5768
same,logFC PAK4,"[4]; experiment wp106, 4 hr",−0.5768
same,logFC,[4]; experiment wp118,−0.5732
same,logFC PAK4,[4]; experiment wp118,−0.5732
